For ten molecules, DC50 and Dmax results are on record in patent publication US12539292B2, “BRM targeting compounds and associated methods of use” (Arvinas Operations, Inc., priority 2018, dated 2026).

Where two headings read alike, the source gives them in different places.

The assay deals with T1, BRM (Homo sapiens, UniProt P51531).
T1 construct: In-Cell Western Screen of BRM Degradation in SW1573 Cells; endogenous in cells; host or cells: SW1573
As to the kind of experiment: In-cell Western screen of BRM degradation in SW1573 cells (Dmax and DC50). The assay is classed as cell-based. To be noted: BRM degradation, SW1573 cells. In a few lines: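 Adherent SW1573 cultures exposed to test compounds for 18-20 h were processed for in-cell Western after PFA fixation and detergent permeabilization. BRM degradation was reported as Dmax and DC50.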

Setting [1] is: when tested at the top concentration of between 0.3 and 10 μM, read-out: Dmax (%) (% degraded).
Where [2] appears, read: tested at the top concentration of between 0.3 and 10 μM, read-out: Dmax (%) (% degraded).

T1 sequence (P51531 whole entry): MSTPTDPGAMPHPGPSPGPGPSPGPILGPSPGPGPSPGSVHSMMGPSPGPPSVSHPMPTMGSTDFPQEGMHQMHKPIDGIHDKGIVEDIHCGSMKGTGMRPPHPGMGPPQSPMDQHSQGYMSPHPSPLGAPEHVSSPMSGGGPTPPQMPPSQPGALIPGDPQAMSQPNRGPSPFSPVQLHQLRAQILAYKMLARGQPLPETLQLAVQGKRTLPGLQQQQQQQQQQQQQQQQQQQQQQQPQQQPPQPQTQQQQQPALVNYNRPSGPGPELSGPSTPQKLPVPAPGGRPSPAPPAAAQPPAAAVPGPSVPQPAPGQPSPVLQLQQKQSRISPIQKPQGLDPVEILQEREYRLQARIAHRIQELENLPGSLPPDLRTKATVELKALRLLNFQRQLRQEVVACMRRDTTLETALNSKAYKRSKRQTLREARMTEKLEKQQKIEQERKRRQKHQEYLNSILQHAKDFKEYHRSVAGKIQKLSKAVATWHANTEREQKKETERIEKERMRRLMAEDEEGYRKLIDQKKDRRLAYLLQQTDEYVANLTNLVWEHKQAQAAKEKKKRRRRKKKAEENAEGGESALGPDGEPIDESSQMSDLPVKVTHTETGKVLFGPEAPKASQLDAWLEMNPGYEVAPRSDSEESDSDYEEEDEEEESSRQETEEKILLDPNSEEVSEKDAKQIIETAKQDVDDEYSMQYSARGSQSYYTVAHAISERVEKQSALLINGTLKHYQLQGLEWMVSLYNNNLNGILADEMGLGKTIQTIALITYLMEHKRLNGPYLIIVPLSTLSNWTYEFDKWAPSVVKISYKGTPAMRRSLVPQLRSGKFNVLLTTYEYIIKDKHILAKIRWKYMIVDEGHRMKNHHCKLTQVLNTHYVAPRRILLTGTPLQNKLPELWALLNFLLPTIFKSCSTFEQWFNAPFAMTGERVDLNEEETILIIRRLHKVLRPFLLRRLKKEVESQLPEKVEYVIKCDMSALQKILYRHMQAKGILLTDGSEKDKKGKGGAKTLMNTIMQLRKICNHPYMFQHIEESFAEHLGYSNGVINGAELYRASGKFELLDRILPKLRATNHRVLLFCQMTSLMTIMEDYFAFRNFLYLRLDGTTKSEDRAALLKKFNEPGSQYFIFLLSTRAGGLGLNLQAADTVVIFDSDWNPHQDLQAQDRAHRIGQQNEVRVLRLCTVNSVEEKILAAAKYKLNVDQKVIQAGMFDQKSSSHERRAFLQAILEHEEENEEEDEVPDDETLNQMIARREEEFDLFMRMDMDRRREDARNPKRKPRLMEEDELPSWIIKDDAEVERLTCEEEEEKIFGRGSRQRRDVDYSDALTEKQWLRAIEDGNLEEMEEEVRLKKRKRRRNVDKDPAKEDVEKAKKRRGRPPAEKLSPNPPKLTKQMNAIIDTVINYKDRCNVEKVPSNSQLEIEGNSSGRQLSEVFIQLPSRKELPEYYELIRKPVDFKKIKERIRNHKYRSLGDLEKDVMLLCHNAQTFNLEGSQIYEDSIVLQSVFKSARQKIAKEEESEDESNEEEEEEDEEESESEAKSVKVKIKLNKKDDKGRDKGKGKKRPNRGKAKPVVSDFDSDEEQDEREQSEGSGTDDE

For orientation: DC50 means the concentration giving 50% degradation. By Dmax is commonly meant the greatest extent of degradation seen. Take `Cc1ncsc1-c1ccc(CNC(=O)[C@@H]2C[C@@H](O)CN2C(=O)[C@H](c2cc(OCCN3CCN(CCOc4cc(N5C6CCC5CN(c5cc(-c7ccccc7O)nnc5N)C6)ccn4)CC3)no2)C(C)C)cc1` [compound 41, (2S,4R)-1-[(2S)-2-[3-[2-(4-[2-[(4-[3-[3-amino-6-(2-hydroxyphenyl)pyridazin-4-yl]-3,8-diazabicyclo[3.2.1]octan-8-yl]pyridin-2-yl)oxy]ethyl]piperazin-1-yl)ethoxy]-1,2-oxazol-5-yl]-3-methylbutanoyl]-4-hydroxy-N-[[4-(4-methyl-1,3-thiazol-5-yl)phenyl]methyl]pyrrolidine-2-carboxamide]: the DC50 (read-out: DC50) is 10 to 30 nM. Moreover, the Dmax under setting [1] was above 75%. Consider `Cc1cnn(C)c1-c1ccc([C@H](C)NC(=O)[C@@H]2C[C@@H](O)CN2C(=O)[C@H](c2cc(OCCN3CCN(CCOc4cc(N5C6CCC5CN(c5cc(-c7ccccc7O)nnc5N)C6)ccn4)CC3)no2)C(C)C)cc1` [compound 193, (2S,4R)-1-((2S)-2-(3-(2-(4-(2-((4-(3-(3-amino-6-(2-hydroxyphenyl)pyridazin-4-yl)-3,8-diazabicyclo[3.2.1]octan-8-yl)pyridin-2-yl)oxy)ethyl)piperazin-1-yl)ethoxy)isoxazol-5-yl)-3-methylbutanoyl)-N-((S)-1-(4-(1,4-dimethyl-1H-pyrazol-5-yl)phenyl)ethyl)-4-hydroxypyrrolidine-2-carboxamide], for which the DC50 (read-out: DC50) was above 30 nM. The Dmax under setting [2] was above 75%. In the case of `Cc1ncsc1-c1ccc([C@H](C)NC(=O)[C@@H]2C[C@@H](O)CN2C(=O)[C@H](c2cc(N3CCC(CN4CCC(O[C@H]5C[C@H](N6CCOC7(CCN(c8cc(-c9ccccc9O)nnc8N)CC7)C6)C5)CC4)CC3)no2)C(C)C)cc1` [compound 617, (2S,4R)-1-((S)-2-(3-(4-((4-((1r,3r)-3-(9-(3-amino-6-(2-hydroxyphenyl)pyridazin-4-yl)-1-oxa-4,9-diazaspiro[5.5]undecan-4-yl)cyclobutoxy)piperidin-1-yl)methyl)piperidin-1-yl)isoxazol-5-yl)-3-methylbutanoyl)-4-hydroxy-N-((S)-1-(4-(4-methylthiazol-5-yl)phenyl)ethyl)pyrrolidine-2-carboxamide], for the setting “Table 2D, read-out: *DC50”, the DC50 was above 30 nM. With `Cc1ncsc1-c1ccc(CNC(=O)[C@@H]2C[C@@H](O)CN2C(=O)[C@@H](c2cc(OCCOCCOCCOCCn3cc(-c4cc(-c5ccccc5O)nnc4N)cn3)no2)C(C)C)cc1` [compound 17, (2S,4R)-1-((R)-2-(3-(2-(2-(2-(2-(4-(3-amino-6-(2-hydroxyphenyl)pyridazin-4-yl)-1H-pyrazol-1-yl)ethoxy)ethoxy)ethoxy)ethoxy)isoxazol-5-yl)-3-methylbutanoyl)-4-hydroxy-N-(4-(4-methylthiazol-5-yl)benzyl)pyrrolidine-2-carboxamide], the DC50 (read-out: DC50) lay within 2.5 to 10 nM. Further, the maximal degradation (Dmax) under setting [1] is above 75%. For `Cc1ncsc1-c1ccc([C@H](C)NC(=O)[C@@H]2C[C@@H](O)CN2C(=O)[C@H](c2cc(O[C@H]3C[C@H](CN4CCC(O[C@H]5C[C@H](Oc6cc(N7C8CCC7CN(c7cc(-c9ccccc9O)nnc7N)C8)ccn6)C5)CC4)C3)no2)C(C)C)cc1` [compound 241, (2S,4R)-1-((2S)-2-(3-((1R,3S)-3-((4-((1r,3R)-3-((4-(3-(3-amino-6-(2-hydroxyphenyl)pyridazin-4-yl)-3,8-diazabicyclo[3.2.1]octan-8-yl)pyridin-2-yl)oxy)cyclobutoxy)piperidin-1-yl)methyl)cyclobutoxy)isoxazol-5-yl)-3-methylbutanoyl)-4-hydroxy-N-((S)-1-(4-(4-methylthiazol-5-yl)phenyl)ethyl)pyrrolidine-2-carboxamide], under “read-out: DC50”, the DC50 lay in the range of 2.5 to 10 nM. Besides, under setting [2], the Dmax was above 75%. As to `Cc1ncsc1-c1ccc(CNC(=O)[C@@H]2C[C@@H](O)CN2C(=O)[C@@H](NC(=O)COCCOCCOCCOCCOCCOCCOc2cc(N3C4CCC3CN(c3cc(-c5ccccc5O)nnc3N)C4)ccn2)C(C)(C)C)cc1` [compound 8, (2S,4R)-1-((2S)-23-((4-(3-(3-amino-6-(2-hydroxyphenyl)pyridazin-4-yl)-3,8-diazabicyclo[3.2.1]octan-8-yl)pyridin-2-yl)oxy)-2-(tert-butyl)-4-oxo-6,9,12,15,18,21-hexaoxa-3-azatricosanoyl)-4-hydroxy-N-(4-(4-methylthiazol-5-yl)benzyl)pyrrolidine-2-carboxamide], for the setting “read-out: DC50”, the DC50 was 10 to 30 nM. Moreover, under setting [1], the Dmax is above 75%.

As for `Cc1ncsc1-c1ccc(CNC(=O)[C@@H]2C[C@@H](O)CN2C(=O)[C@H](c2cc(OCCN3CCN(CCCc4cc(N5C6CCC5CN(c5cc(-c7ccccc7O)nnc5N)C6)ccn4)CC3)no2)C(C)C)cc1` [compound 43, (2S,4R)-1-[(2S)-2-[3-(2-[4-[3-(4-[3-[3-amino-6-(2-hydroxyphenyl)pyridazin-4-yl]-3,8-diazabicyclo[3.2.1]octan-8-yl]pyridin-2-yl)propyl]piperazin-1-yl]ethoxy)-1,2-oxazol-5-yl]-3-methylbutanoyl]-4-hydroxy-N-[[4-(4-methyl-1,3-thiazol-5-yl)phenyl]methyl]pyrrolidine-2-carboxamide], under setting [1], the Dmax is below 50%. As for `Cc1ncsc1-c1ccc([C@H](C)NC(=O)[C@@H]2C[C@@H](O)CN2C(=O)[C@@H](c2cc(N3CCC(C#CCN4CCC(Oc5cc(N6C7CCC6CN(c6cc(-c8ccccc8O)nnc6N)C7)ccn5)CC4)CC3)no2)C(C)C)cc1` [compound 677, (2S,4R)-1-((2R)-2-(3-(4-(3-(4-((4-(3-(3-amino-6-(2-hydroxyphenyl)pyridazin-4-yl)-3,8-diazabicyclo[3.2.1]octan-8-yl)pyridin-2-yl)oxy)piperidin-1-yl)prop-1-yn-1-yl)piperidin-1-yl)isoxazol-5-yl)-3-methylbutanoyl)-4-hydroxy-N-((S)-1-(4-(4-methylthiazol-5-yl)phenyl)ethyl)pyrrolidine-2-carboxamide], the DC50 (read-out: DC50) is below 2.5 nM. Moreover, the Dmax (read-out: Dmax (% degraded)) was above 75%. For `Cc1ncsc1-c1ccc([C@H](C)NC(=O)[C@@H]2C[C@@H](O)CN2C(=O)[C@@H](c2cc(N3CCC(C(C)N4CCC(O[C@H]5C[C@H](Oc6cc(N7C8CCC7CN(c7cc(-c9ccccc9O)nnc7N)C8)ccn6)C5)CC4)CC3)no2)C(C)C)cc1` (stereo partly drawn) [compound 644, (2S,4R)-1-((2R)-2-(3-(4-(1-(4-((1r,3r)-3-((4-(3-(3-amino-6-(2-hydroxyphenyl)pyridazin-4-yl)-3,8-diazabicyclo[3.2.1]octan-8-yl)pyridin-2-yl)oxy)cyclobutoxy)piperidin-1-yl)ethyl)piperidin-1-yl)isoxazol-5-yl)-3-methylbutanoyl)-4-hydroxy-N-((S)-1-(4-(4-methylthiazol-5-yl)phenyl)ethyl)pyrrolidine-2-carboxamide], in that order: below 2.5 nM and above 75%. Regarding `Cc1ncsc1-c1ccc([C@H](C)NC(=O)[C@@H]2C[C@@H](O)CN2C(=O)[C@@H](c2cc(OCCOc3ccc(C(C)n4cc(-c5cc(-c6ccccc6O)nnc5N)cn4)cc3)no2)C(C)C)cc1` (stereo partly drawn) [compound 81, (2S,4R)-1-((2R)-2-(3-(2-(4-(1-(4-(3-amino-6-(2-hydroxyphenyl)pyridazin-4-yl)-1H-pyrazol-1-yl)ethyl)phenoxy)ethoxy)isoxazol-5-yl)-3-methylbutanoyl)-4-hydroxy-N-((S)-1-(4-(4-methylthiazol-5-yl)phenyl)ethyl)pyrrolidine-2-carboxamide], the DC50 (read-out: DC50) is below 2.5 nM. Further, the Dmax under setting [1] is above 75%.
